# Experiments:
# [1] = Combination effect by median-effect method, summary over the cell lines of Example 1; assay type: cell-based; conditions: in combination with STX-1159; summary of Table 5
# Procedure: The fraction affected (hereinafter, abbreviated as fa) was calculated from the following expression: fa=1-(viable cell count in agent exposure group)/(viable cell count in control group). […] Evaluation of the combination effect was based on grading by CI in Table 4. In calculation of CI, the average of the values from two or more experiments was employed.
# phosphorylated STAT3 = molecular target: T1, phosphorylated STAT3 (Homo sapiens, UniProt P40763); experiment: Western blotting in NCI-H2228 cells; assay type: cell-based; conditions: 24 hours
# T1 construct: endogenous in cells; host or cells: NCI-H2228
# T1 sequence (P40763 whole entry): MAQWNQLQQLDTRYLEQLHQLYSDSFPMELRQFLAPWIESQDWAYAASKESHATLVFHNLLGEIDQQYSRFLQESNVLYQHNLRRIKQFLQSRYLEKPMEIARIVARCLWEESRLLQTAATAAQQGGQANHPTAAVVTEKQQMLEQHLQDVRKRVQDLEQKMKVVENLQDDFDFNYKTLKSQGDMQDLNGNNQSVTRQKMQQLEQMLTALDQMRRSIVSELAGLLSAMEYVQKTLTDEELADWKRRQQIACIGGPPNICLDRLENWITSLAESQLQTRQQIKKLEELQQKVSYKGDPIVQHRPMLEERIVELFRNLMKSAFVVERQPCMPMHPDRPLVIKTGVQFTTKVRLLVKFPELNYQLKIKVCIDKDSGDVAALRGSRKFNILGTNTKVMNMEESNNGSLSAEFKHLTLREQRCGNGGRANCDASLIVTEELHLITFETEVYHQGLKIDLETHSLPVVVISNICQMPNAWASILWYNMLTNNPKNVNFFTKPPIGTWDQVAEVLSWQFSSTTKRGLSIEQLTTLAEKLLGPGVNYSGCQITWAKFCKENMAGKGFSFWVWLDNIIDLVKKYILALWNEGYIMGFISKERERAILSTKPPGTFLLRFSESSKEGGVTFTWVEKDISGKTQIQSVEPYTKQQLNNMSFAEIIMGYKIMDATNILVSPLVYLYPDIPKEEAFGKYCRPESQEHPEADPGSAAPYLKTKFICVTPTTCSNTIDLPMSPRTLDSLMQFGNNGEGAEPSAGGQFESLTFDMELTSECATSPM
# c-myc = experiment: Western blotting in NCI-H2228 cells; assay type: cell-based, Human; conditions: 24 hours
# NCI-H2228 = experiment: Combination effect by median-effect method, WST-8 assay; assay type: cell-based, Human; conditions: in combination with STX-1159, 72 hours
# Text: (§1) NCI-H2228, NCI-H1975, SK-BR-3, Hep3B, MCF-7, Caov-3, A2058, K562 and SUP-B15 were purchased from American Type Culture Collection, SAS and HuH-7 were purchased from National Institutes of Biomedical Innovation, Health and Nutrition, and K1, FTC-133 and Ishikawa were purchased European Collection of Authenticated Cell Cultures. […] Fetal bovine serum (hereinafter, abbreviated as FBS) and MCDB 105 culture medium were purchased from Sigma Aldrich (Cat. Nos. 172012 and 117-500), and RMPI1640 culture medium, DMEM medium, Ham's F-12 medium, MEM medium and IMDM culture medium were purchased Thermo Fisher Scientific (Cat. Nos. A1049101, 11995-065, 11765-054, 11095-080 and 12440-053).
# (§2) The agents were singly added one day after the cells were inoculated. […] The absorbance of water-soluble formazan generated by enzymatic activity of mitochondria in cells was measured at 450 nm using a microplate reader (Molecular Devices, Model: SpectraMax Plus). This was evaluated as the viable cell count to calculate a 50% cell growth inhibitory concentration (hereinafter, abbreviated as IC50). The reference dose of each agent was set based on IC50 (Table 3).
# (§3) One day after the cells were inoculated, for single groups, STX-1159 and the agents were each added so as to be a final concentration which is ¼ times, ½ times, 1 time, 2 times or 4 times the reference dose, and for combination groups, STX-1159 and the agents were added so as to be a final concentration where STX-1159 and the agents combined were each ¼ times, ½ times, 1 time, 2 times or 4 times the reference dose. […] The fraction affected (hereinafter, abbreviated as fa) was calculated from the following expression:
# (§4) fa=1−(viable cell count in agent exposure group)/(viable cell count in control group).
# (§5) By a median-effect method using combination effect analyzing software CalcuSyn (HULINKS), the combination index (hereinafter, abbreviated as CI) was calculated from fa obtained when STX-1159 and the agents were exposed alone or in combination. Evaluation of the combination effect was based on grading by CI in Table 4. In calculation of CI, the average of the values from two or more experiments was employed.
# Caov-3 = conditions: in combination with STX-1159, 72 hours
# Text: as §1
# (§6) The cells were inoculated on a 96-well plate to the density shown in Table 2, and were cultured under conditions of 5% CO2 and 37° C. The agents were singly added one day after the cells were inoculated. To the control group was added DMSO, so as to be a final concentration of 0.05%. Subsequently, the cells were cultured under conditions of 5% CO2 and 37° C. for the time shown in Table 2, and the number living cells was evaluated by WST-8 assay. That is, 10 μL of a WST-8 kit solution (Kishida Chemical Co., ltd, Cat. No. 260-96162) was added to each well, and the cells were cultured under conditions of 5% CO2 and 37° C. for 1 to 2 hours. The absorbance of water-soluble formazan generated by enzymatic activity of mitochondria in cells was measured at 450 nm using a microplate reader (Molecular Devices, Model: SpectraMax Plus). This was evaluated as the viable cell count to calculate a 50% cell growth inhibitory concentration (hereinafter, abbreviated as IC50).
# (§7) The cells were inoculated on a 96-well plate so as to be the density shown in Table 2, and were cultured under conditions of 5% CO2 and 37° C. One day after the cells were inoculated, for single groups, STX-1159 and the agents were each added so as to be a final concentration which is ¼ times, ½ times, 1 time, 2 times or 4 times the reference dose, and for combination groups, STX-1159 and the agents were added so as to be a final concentration where STX-1159 and the agents combined were each ¼ times, ½ times, 1 time, 2 times or 4 times the reference dose. To the control group was added DMSO, so as to be a final concentration of 0.1%. Subsequently, the cells were cultured under conditions of 5% CO2 and 37° C. for the time shown in Table 2, and the number living cells was measured by WST-8 assay. The fraction affected (hereinafter, abbreviated as fa) was calculated from the following expression:
# as §4, §5
# MCF-7 = conditions: in combination with STX-1159, 72 hours
# Text: as §1, §6, §7, §4, §5
# Ishikawa = conditions: in combination with STX-1159, 72 hours
# Text: as §1, §6, §7, §4, §5
# SK-BR-3 = experiment: Combination effect by median-effect method, WST-8 assay; assay type: cell-based, Human; conditions: in combination with STX-1159, 72 hours
# Text: as §1, §6, §7, §4, §5
# HuH-7 = experiment: as above; assay type: cell-based, Human; conditions: in combination with STX-1159, 72 hours
# Text: as §1, §2, §3, §4, §5
# Hep3B = experiment: as above; assay type: cell-based, Human; conditions: in combination with STX-1159, 72 hours
# Text: as §1, §2, §3, §4, §5
# NCI-H1975 = experiment: as above; assay type: cell-based, Human; conditions: in combination with STX-1159, 72 hours
# Text: as §1, §2, §3, §4, §5
# survivin = experiment: Western blotting in NCI-H2228 cells; assay type: cell-based, Human; conditions: agent alone, STX-1159 5 μM, 24 hours
# FTC-133 = conditions: in combination with STX-1159, 72 hours
# Text: as §1, §6, §7, §4, §5
# SAS = conditions: in combination with STX-1159, 48 hours
# Text: as §1, §6, §7, §4, §5
# K1 = experiment: Combination effect by median-effect method, WST-8 assay; assay type: cell-based, Human; conditions: in combination with STX-1159, 72 hours
# Text: as §1, §2, §3, §4, §5
# [2] = agent alone, STX-1159 5 μM, alectinib 0.01 or 0.1 μM
# [3] = both agents in combination (STX-1159 5 μM, alectinib 0.01 or 0.1 μM) versus each single agent
structure (smiles),measurement,setting,value
CCc1cc2c(cc1N1CCC(N3CCOCC3)CC1)C(C)(C)c1[nH]c3cc(C#N)ccc3c1C2=O [Alectinib],combination effect by the median-effect method,[1],synergetic effect
same,amount of phosphorylated STAT3,phosphorylated STAT3; [2],reduced
same,amount of phosphorylated STAT3,phosphorylated STAT3; [3],more reduced
same,amount of c-myc,c-myc; [2],reduced
same,amount of c-myc,c-myc; [3],more reduced
same,CI,NCI-H2228,0.57
same,Combination effect,NCI-H2228,Synergetic effect (0.3 < CI ≤ 0.7)
"CO[C@H]1C[C@@H]2CC[C@@H](C)[C@@](O)(O2)C(=O)C(=O)N2CCCC[C@H]2C(=O)O[C@H]([C@H](C)C[C@@H]2CC[C@@H](OCCO)[C@H](OC)C2)CC(=O)[C@H](C)/C=C(\C)[C@@H](O)[C@@H](OC)C(=O)[C@H](C)C[C@H](C)/C=C/C=C/C=C/1C [Everolimus, everolimus]",CI,Caov-3,0.90
same,Combination effect,Caov-3,Light synergetic effect (0.85 < CI ≤ 0.9)
same,CI,MCF-7,0.73
same,Combination effect,MCF-7,Moderate synergetic effect (0.7 < CI ≤ 0.85)
same,CI,Ishikawa,0.89
same,Combination effect,Ishikawa,Light synergetic effect (0.85 < CI ≤ 0.9)
same,combination effect by the median-effect method,[1],synergetic effect
"CS(=O)(=O)CCNCc1ccc(-c2ccc3ncnc(Nc4ccc(OCc5cccc(F)c5)c(Cl)c4)c3c2)o1 [Lapatinib, lapatinib]",combination effect by the median-effect method,[1],synergetic effect
same,CI,SK-BR-3,0.88
same,Combination effect,SK-BR-3,Light synergetic effect (0.85 < CI ≤ 0.9)
"COc1cc2nccc(Oc3ccc(NC(=O)NC4CC4)c(Cl)c3)c2cc1C(N)=O [Lenvatinib, lenvatinib]",combination effect by the median-effect method,[1],synergetic effect
same,CI,HuH-7,0.85
same,Combination effect,HuH-7,Moderate synergetic effect (0.7 < CI ≤ 0.85)
same,CI,Hep3B,0.75
same,Combination effect,Hep3B,Moderate synergetic effect (0.7 < CI ≤ 0.85)
"C=CC(=O)Nc1cc(Nc2nccc(-c3cn(C)c4ccccc34)n2)c(OC)cc1N(C)CCN(C)C [Osimertinib, osimertinib]",combination effect by the median-effect method,[1],synergetic effect
same,CI,NCI-H1975,0.81
same,Combination effect,NCI-H1975,Moderate synergetic effect (0.7 < CI ≤ 0.85)
"O=C(Nc1nnc(-c2ccco2)o1)c1cc(-c2ccccc2)nc2ccc(OC(F)(F)F)cc12 [STX-1159, N-[5-(2-furyl)-1,3,4-oxadiazol-2-yl]-2-phenyl-6-tri fluoromethoxy-4-quinoline carboxamide]",amount of survivin,survivin,reduced
same,amount of phosphorylated STAT3,phosphorylated STAT3; [2],reduced
same,amount of c-myc,c-myc; [2],reduced
CNC(=O)c1cc(Oc2ccc(NC(=O)Nc3ccc(Cl)c(C(F)(F)F)c3)cc2)ccn1 [Sorafenib],CI,FTC-133,0.85
same,Combination effect,FTC-133,Light synergetic effect (0.85 < CI ≤ 0.9)
same,CI,SAS,0.56
same,Combination effect,SAS,Synergetic effect (0.3 < CI ≤ 0.7)
same,combination effect by the median-effect method,[1],synergetic effect
same,CI,K1,0.77
same,Combination effect,K1,Moderate synergetic effect (0.7 < CI ≤ 0.85)

# Source: US20220008409A1, “CANCER COMBINATION THERAPY USING QUINOLINE CARBOXAMIDE DERIVATIVE” (KABUSHIKI KAISHA YAKULT HONSHA, priority 2018, published 2022)
